Consider 10 molecules from publication PMC12366525, “Characterization of allosteric modulators that disrupt androgen receptor co-activator protein-protein interactions to alter transactivation–Drug leads for metastatic castration resistant prostate cancer” (SLAS discovery : advancing life sciences R & D, 2023).

The subject of data set [1] is PSA. Kind of data set: Western blot of PSA expression in C4–2 cells. In kind it is cell-based, human. As to conditions: C4–2 cells. The protocol: Cell lysate protein concentrations were determined in a bicinchoninic acid (BCA) assay. Equal amounts of cell protein were mixed with SDS-PAGE sample buffer and placed in a heat block at 100 °C for 5 min. The protein constituents of C4–2 cells were separated by SDS-PAGE on 10% separating gels, transferred to nitrocellulose membranes and western blots were probed overnight at 4 °C with a 1:1000 dilution of a rabbit anti-hPSA (Cell Signaling, Danvers, MA) primary antibody in Tris-buffered saline (TBS) Tween 20 (TBST) containing 5% non-fat milk. Membranes were washed 3x in TBST for 10 min, then incubated for 1 h at room temperature with a 1:10,000 dilution of the goat anti-rabbit IgG horse radish peroxidase (HRP) conjugated secondary antibody (Invitrogen, Carlsbad, CA) in TBST containing 5% non-fat milk. Western blots were then washed 3x in TBST and developed with Pierce enhanced chemiluminescence (ECL) western blotting substrate (Thermo Fisher Scientific, Waltham, MA). Images of western blot ECL bands were acquired on an iBright 1500 imaging system (Thermo Fisher Scientific, Waltham, MA) and quantified by iBright image analysis software.

The test system of data set [2] is PSA. Description: Dot blot of PSA secretion by C4–2 cells. The data set is classed as cell-based, human. As to conditions: C4–2 cells; 10 nM DHT 24 h. As to the method:
To determine PSA secretion levels, C4–2 cells were seeded at 1.4 × 10 [5] cells/well in 12-well plates and treated as described above for PSA cell expression experiments. […] 500 μL of conditioned media supernatant was added to the wells of 96-well to Bio-blot apparatus (BioRad, Hercules, CA) containing a nitrocellulose membrane and was allowed to pass through and attach to the membrane under gravity for 3–4 h at room temperature. The membrane was washed 1x with 500 μL TBS under vacuum, blocked with 1% BSA in TBST for 1 h, and then incubated overnight at 4 °C with the primary rabbit anti-hPSA antibody (Cell Signaling, Danvers, MA) diluted 1:1000 in TBST plus 1% BSA. Dot blots were washed 3x in 10 mL of TBST for 10 min, then incubated for 1 h with secondary goat anti-rabbit-IgG HRP conjugated antibody (Invitrogen, Carlsbad, CA) diluted 1:10,000 in TBST plus 1% Bovine Serum Albumin (BSA), washed 3x with 10 mL of TBST for 10 min, and then developed with Pierce ECL western blotting substrate. Images of ECL dot blots were acquired on an iBright 1500 imaging system and quantified by iBright image analysis software.

The target of data set [3] is T1, AR-TIF2 PPI (Homo sapiens, UniProt P10275).
T1 construct: expressed in transfected cells; host or cells: U-2 OS osteosarcoma cells, co-infected with recombinant adenoviruses
T1 sequence (P10275 663-920 limits assumed): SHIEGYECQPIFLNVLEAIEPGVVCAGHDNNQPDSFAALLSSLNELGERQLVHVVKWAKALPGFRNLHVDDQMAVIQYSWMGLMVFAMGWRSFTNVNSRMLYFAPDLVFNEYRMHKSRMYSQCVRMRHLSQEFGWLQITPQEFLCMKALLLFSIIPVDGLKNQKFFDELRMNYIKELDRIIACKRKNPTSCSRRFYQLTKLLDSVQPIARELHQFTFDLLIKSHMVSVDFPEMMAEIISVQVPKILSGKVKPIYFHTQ
Description: AR-TIF2 PPI biosensor (PPIB) HCS assay, inhibition of DHT-induced AR-TIF2 PPI formation. The data set is classed as cell-based. As to conditions: U-2 OS cells; compounds 3 h prior to 25 nM DHT for 90 min. As to the method: (§1) Daughter plates containing 2 μL of the serially diluted compounds in DMSO were prepared and replicated from 384-well serial dilution master plates using a Janus MDT platform outfitted with a 384-well transfer head. Aluminum adhesive plate seals were applied, and plates were stored at −20 °C. For bioassay testing, daughter plates were withdrawn from −20 °C storage, thawed to ambient temperature, and centrifuged for 1 min at 100 × g, and plate seals were removed before 38 μL of serum-free media (SFM) was transferred into wells using a Matrix pipettor (ThermoFisher, Waltham, MA), to generate an intermediate stock concentration of validation compounds ranging from 0.977 to 500 μM (5.0% DMSO). Diluted compounds were mixed by repeated aspiration and dispensation using a 384-well P30 dispensing head on the Janus MDT platform and then, 5 μL of diluted compounds was transferred to assay plate wells to provide a final concentration range from 0.0977 to 50 μM (0.5% DMSO).
(§2) The AR-TIF2 PPIB HCS assay was performed in U-2 OS osteosarcoma cells as described previously. Briefly, U-2 OS cells were coinfected with recombinant adenovirus biosensor expression constructs and seeded at 2500 cells per well in 384-well collagen-coated microplates (Greiner BioOne #781956) and plates were incubated overnight at 37°C in 5% CO2 and 95% humidity. […] After the appropriate time, assay plates were fixed by transfer of 50 μL of pre-warmed (37°C) 7.4% formaldehyde and 2 μg/mL Hoechst 33342 in PBS and incubation at room temperature for 30 min. Liquid was aspirated, plates were washed twice with 85 μL PBS, leaving the final wash in the plate. Plates were sealed with adhesive aluminum plate seals, and fluorescent images of three fields of view were acquired in the DAPI (Hoechst stained nuclei), FITC (TIF2-GFP) and Texas Red (AR-RFP) channels on an ImageXpress Micro (IXM) automated HCS platform (Molecular Devices LLC, Sunnyvale, CA) using a 10X Plan Fluor 0.3 NA objective. Images were analyzed using the Translocation Enhanced (TE) image analysis module of the MetaXpress software as described previously.
(§3) In 384-well assays, DMSO minimum (n = 32) and maximum (n = 32) plate control wells were utilized to calculate signal-to-background ratios (S:B) and Z’-factor coefficient assay performance quality control statistics, and to normalize the signals of compound treated wells and to represent 0% and 100% respectively. For the 96-well AR-LBD H^3-DHT radioligand binding assay, eight minimum and maximum plate control wells were utilized to normalize the data. For the PC cell line growth inhibition assays we used the DMSO control data from the T0 and T72 assay plates to assess the dynamic range of the T0 to T72 cell growth, and to calculate S:B ratios and Z’-factor coefficient statistics for the assay signal window (T0 to T72). To normalize the 72 h compound exposure PC growth inhibition data, the signals from the compound treated wells were processed and expressed as% of the T72 DMSO plate controls. IC50 and GI50 values for each of the bioassays were calculated using Graph-Pad Prism 9 software to plot and fit data to curves using the Sigmoidal dose response variable slope equation Y = Bottom + [Top-Bottom]/ [1 + 10^^(LogEC50-X)*HillSlope].

Data set [4] has as its target T1, AR-TIF2 PPI. Description: AR-TIF2 PPI biosensor (PPIB) HCS assay, disruption of pre-formed AR-TIF2 PPI complexes. In kind it is cell-based. As to conditions: U-2 OS cells; 25 nM DHT 90 min prior to compounds for 3 h. As to the method: as §1, §2, §3
Data set [5] concerns U-2 OS cells. Kind of data set: AR-TIF2 PPIB cell loss (Hoechst stained nuclei). The data set is classed as cell-based. Particulars: 4.5 h compound exposure. The protocol:
as §2

Data set [6] relates to DU-145 cells. Description: Prostate cancer cell line growth inhibition assay, DU-145. Particulars: Homo sapiens, DU-145, 72 h; read-out: DU145 GI50 (AR−). In kind it is cell-based. As to the method:
(§4) The PC-3, DU-145, LNCaP, C4–2, and 22Rv1 PC cell line growth inhibition assays have been described previously. On day 1, each PC cell line was harvested, counted, and seeded into two 384-well assay plates, a time zero (T0) and a time 72 h (T72) plate. PC cell lines were all seeded at 1000 cells per well in 45 μL of tissue culture media in uncoated white clear bottom 384-well assay plates (VWR, # 82050–076) using a Matrix electronic multichannel pipette (Thermo Fisher Scientific, Waltham, MA) and cultured overnight at 37 °C, 5% CO2, and 95% humidity. On day 2, 25 μL of the Cell Titer Glo (CTG) (Promega Corporation, Madison, WI) detection reagent was dispensed into the wells of the T0 assay plate using a Matrix electronic multichannel pipette, and the RLUs were captured on the SpectraMax M5e (Molecular Devices LLC, Sunnyvale, CA) microtiter plate reader. Also on day 2, 5 μL of compounds were transferred into the test wells of the T72 384-well assay plates which were returned to the incubator for 72 h. Control wells received DMSO alone. On day 5, 25 μL of the CTG detection reagent was dispensed into the wells of the T72 assay plate using a Matrix electronic multichannel pipette, and the RLU’s were captured on the SpectraMax M5e microtiter plate reader platform.
as §3

Data set [7] has as its system PC-3 cells. Description: Prostate cancer cell line growth inhibition assay, PC-3. In kind it is cell-based. Particulars: Homo sapiens, PC-3, 72 h, read-out: PC3 GI50 (AR−). As to the method:
as §4, §3

In data set [8] the test system is 22Rv1 cells. Kind of data set: Prostate cancer cell line growth inhibition assay, 22Rv1. In kind it is cell-based. Particulars: Homo sapiens, 22Rv1, 72 h; read-out: 22Rv1 GI50 (AR+). As to the method:
as §4, §3

For data set [9], the system named is LNCaP cells. Kind of data set: Prostate cancer cell line growth inhibition assay, LNCaP. The data set is classed as cell-based. Particulars: Homo sapiens, LNCaP, 72 h; read-out: LNCap GI50 (AR+). The protocol:
as §4, §3

The test system of data set [10] is C4–2 cells. Description: Prostate cancer cell line growth inhibition assay, C4–2. In kind it is cell-based. Particulars: C4-2, 72 h; read-out: C4–2 GI50 (AR +). The protocol:
as §4, §3

Data set [11] concerns PC cell lines positive (LNCaP, C4–2, & 22Rv1 cells) or negative (PC-3 & DU-145) for AR. Kind of data set: Prostate cancer cell line growth inhibition assays, panel statements. As to conditions: ALL5; all 5 PC cell lines; 72 h; ≥50% growth inhibition not achieved at ≤100 μM; read-out: GI50 in any PC cell line. The data set is classed as cell-based. The protocol: as §4, §3
In data set [12] the test system is LNCaP mouse xenograft models. As to conditions: cited from earlier work.

In general, IC50 refers to the midpoint of a concentration-inhibition curve. Usually GI50 stands for the concentration giving 50% growth inhibition.

“And” between values parts separate entries of the source, which are not always exact repeats. Identical values can stand only once.

On to `C[C@]12CCC(=O)C[C@@H]1CC[C@@H]1[C@@H]2CC[C@]2(C)[C@@H](O)CC[C@@H]12` [DHT, 5α-dihydrotestosterone, reference compound], for which, in data set [1] (10 nM DHT 24 h), the “Increase of PSA levels in cells over untreated controls” value is 12.3 fold and 11.4 fold. The “Increase of PSA levels in conditioned media over untreated controls” value in [2] stood at 2.4 fold.
For `Cc1nsc(NC(=O)N2CCC(N3CCCC3=O)CC2)n1` [S2–9], the IC50 in [3] and in data set [4] was greater than 100 µM in each case. Moreover, the “AR-TIF2 PPIB Cell Loss” value in data set [5] was greater than 100 µM. Further, the GI50 in data set [6], in data set [7], in data set [8], in [9], in data set [10] and in data set [11] was greater than 100 µM throughout.
Take `Cc1nsc(NC(=O)N2CCC(F)CC2)n1` [S2–10]: the “AR-TIF2 PPIB Cell Loss” value in data set [5] is greater than 100 µM. The GI50 in [6], in [7], in [8], in data set [9], in [10] and in data set [11] was greater than 100 µM in each case.
In turn, `Cc1c(-c2ccccc2F)[nH]c2ccc(CNC(=O)c3cc[nH]n3)cc12` [S3–16] returned an IC50 in [3] of 28.8 µM.
With `Cc1c(-c2ccccc2F)[nH]c2ccc(CNC(=O)CCC3=NNC(=O)CC3)cc12` [S3–18], the IC50 in data set [3] was 39.6 µM; in [4], greater than 100 µM.
For `Cc1c(-c2ccccc2F)[nH]c2ccc(CNC(=O)Cc3cccnc3)cc12` [S3–19] the same measures were 68.5 µM and greater than 100 µM.
The molecule `CCc1[nH]c2c(CNC(=O)CCCc3cn[nH]c3)cc(F)cc2c1C` [S3–25] yielded a half-maximal inhibitory concentration (IC50) in data set [3] of 77.1 µM.
On to `Cc1cccc2c(-c3ccc4ccccc4n3)c[nH]c12` [VPC-13566, 2-(7-methyl-1H-indol-3-yl) quinoline], for which the “CRPC tumor growth and serum PSA levels” value in data set [12] is “reduced CRPC tumor growth and serum PSA levels”.
With `CC(C)NC(=O)c1cccc2nc(-c3cn(COP(=O)([O-])[O-])c4c(F)c(F)c(F)cc34)ccc12.[Na+].[Na+]` [VPC-13822], in [12], the “PSA production and CRPC tumor volume” value is “reduced PSA production and CRPC tumor volume”. In addition, the “Toxicity in xenograft models” value in [12] (mouse, in vivo) was “no observable toxicity”.
Turning to `CNC(=O)c1ccc(N2C(=S)N(c3ccc(C#N)c(C(F)(F)F)c3)C(=O)C2(C)C)cc1F` [enzalutamide, reference compound], in data set [1] (25 μM for 3 h prior to 10 nM DHT, 24 h), the “Reduction of DHT-enhanced PSA expression levels” value was found to be 7.5 fold. Moreover, the “Reduction of endogenous PSA expression levels” value in data set [1] (25 μM for 3 h prior to media, 24 h) worked out at 3.3 fold.
